What was measured:
Type in all cases: in vivo
[1] = system: broad leaf weeds (Lindernia pyxidaria and Monochoria vaginalis); assay: Test Example 2: herbicidal effect test by treatment during growing period in paddy rice cultivation (seven days after seeding); conditions: 120 g/10a active ingredient, assessed 14 days after treatment, dry weight vs untreated area
Summary of the method: (§1)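 Sow 30 seeds per species (0–1 cm) into puddled, fertilized paddy soil; keep flooded ~3 cm in greenhouse. Day 7 after seeding: drop water-diluted emulsion, 120 g a.i./10 ares. Harvest 14 d post-treatment; compare dry weight with untreated pots (duplicate).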

[2] = system: Echinochloa crus-galli; assay: as above; conditions: 120 g/10a active ingredient, assessed 14 days after treatment, dry weight vs untreated area
Summary of the method: as §1

[3] = system: Scirpus juncoides; assay: as above; conditions: 120 g/10a active ingredient, assessed 14 days after treatment, dry weight vs untreated area
Summary of the method: as §1

[4] = system: southern crabgrass; assay: Test Example 3: herbicidal effect test by treatment of dry field farming soil (one day after seeding); conditions: 120 g/10a active ingredient, evaluated 14 days after treatment
Summary of the method: (§2)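 Weeds were seeded into the upper soil layer of alluvial field soil and, one day afterwards, the soil surface was sprayed with water-diluted emulsion delivering 120 g active ingredient per 10 ares. Mean plant dry weight relative to untreated pots after 14 days gave the herbicidal rate, tested in duplicate.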

[5] = system: Chenopodium album; assay: as above; conditions: 120 g/10a active ingredient, evaluated 14 days after treatment
Summary of the method: as §2

[6] = system: Amaranthus viridis; assay: as above; conditions: 120 g/10a active ingredient, evaluated 14 days after treatment
Summary of the method: as §2

[7] = system: Echinochloa crus-galli; assay: as above; conditions: 120 g/10a active ingredient, evaluated 14 days after treatment
Summary of the method: as §2

[8] = system: southern crabgrass; assay: Test Example 4: herbicidal effect test by treatment of leave and stem in dry field farming (seven days after seeding); conditions: 120 g/10a active ingredient; emulsion sprayed seven days after seeding; evaluated 14 days after treatment
Summary of the method: (§3)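 Twenty seeds per species were mixed into the top 1 cm of alluvial soil in 36 cm^2 pots; emulsions were sprayed seven days after seeding at 100 L per 10 ares (120 g active ingredient per 10 ares). Herbicidal rate (%) = {1 − treated/untreated mean dry weight} × 100, 14 days after treatment, duplicate.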

[9] = system: Chenopodium album; assay: as above; conditions: 120 g/10a active ingredient; emulsion sprayed seven days after seeding; evaluated 14 days after treatment
Summary of the method: as §3

[10] = system: Amaranthus viridis; assay: as above; conditions: 120 g/10a active ingredient; emulsion sprayed seven days after seeding; evaluated 14 days after treatment
Summary of the method: as §3

[11] = system: Echinochloa crus-galli; assay: as above; conditions: 120 g/10a active ingredient; emulsion sprayed seven days after seeding; evaluated 14 days after treatment
Summary of the method: as §3

[12] = system: broad leaf weeds (Lindernia pyxidaria and Monochoria vaginalis); assay: Test Example 1: herbicidal effect test by treatment of rice paddy soil (immediately after seeding); conditions: 120 g/10a active ingredient, dry weight vs untreated area, 14 days after treatment
Summary of the method: (§4)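 Puddled, fertilized (N:P:K=17:17:17) paddy soil in Wagner pots; seeds sown 0–1 cm deep, flooded to about 3 cm. Emulsifiable formulations diluted in water and dropped into the water immediately after seeding at 120 g active ingredient per 10 ares; greenhouse. Herbicidal rate from dry weight vs untreated at 14 days.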

[13] = system: Echinochloa crus-galli; assay: as above; conditions: 120 g/10a active ingredient, dry weight vs untreated area, 14 days after treatment
Summary of the method: as §4

[14] = system: Scirpus juncoides; assay: as above; conditions: 120 g/10a active ingredient, dry weight vs untreated area, 14 days after treatment
Summary of the method: as §4

`Cc1c(Cc2ccccc2N(S(=O)(=O)C(F)(F)F)S(=O)(=O)C(F)(F)F)c(=O)on1CCOCC(C)C` [Compound 1-1000] was tested, and the “Herbicidal rate (%) Lindernia pyxidaria” value [1] was 40%, the “Herbicidal rate (%) Monochoria vaginalis” value [1] was 70% and the “Herbicidal rate (%) Echinochloa crus-galli” value [2] was 90%. The “Herbicidal rate (%) Scirpus juncoides” value [3] was 90%, the “herbicidal rate, southern crabgrass” value [4] was 80% and the “herbicidal rate, Chenopodium album” value [5] was 40%. The “herbicidal rate, Amaranthus viridis” value [6] was 40%, the “herbicidal rate, Echinochloa crus-galli” value [7] was 60% and the “herbicidal effect (herbicidal rate), southern crabgrass” value (from here on “herbicidal effect … southern crabgrass”) [8] was 40%. The “herbicidal effect (herbicidal rate), Chenopodium album” value (“herbicidal effect … Chenopodium album” for short) [9] was 0%, the “herbicidal effect (herbicidal rate), Amaranthus viridis” value (“herbicidal effect … Amaranthus viridis” below) [10] was 40% and the “herbicidal effect (herbicidal rate), Echinochloa crus-galli” value [11] was 60%. For the same compound, the “Herbicidal rate (%) Lindernia pyxidaria” value [12] was 80%, the “Herbicidal rate (%) Monochoria vaginalis” value [12] was 90% and the “Herbicidal rate (%) Echinochloa crus-galli” value [13] was 100%. The “Herbicidal rate (%) Scirpus juncoides” value [14] was 100%.
In the case of `Cc1c(Cc2ccccc2N(S(=O)(=O)C(F)(F)F)S(=O)(=O)C(F)(F)F)c(=O)on1CC[S+](C)[O-]` (stereo not drawn) [Compound 1-1005], the “Herbicidal rate (%) Lindernia pyxidaria” value [1] is reported as 70%, the “Herbicidal rate (%) Monochoria vaginalis” value [1] is reported as 90% and the “Herbicidal rate (%) Echinochloa crus-galli” value [2] is reported as 90%. The “Herbicidal rate (%) Scirpus juncoides” value [3] was 90%, the “herbicidal rate, southern crabgrass” value [4] was 40% and the “herbicidal rate, Chenopodium album” value [5] was 40%. The “herbicidal rate, Amaranthus viridis” value [6] was 40%, the “herbicidal rate, Echinochloa crus-galli” value [7] was 60% and the “herbicidal effect … southern crabgrass” value [8] was 40%. For the same compound, the “herbicidal effect … Chenopodium album” value [9] was 40%, the “herbicidal effect … Amaranthus viridis” value [10] was 40% and the “herbicidal effect (herbicidal rate), Echinochloa crus-galli” value [11] was 60%. The “Herbicidal rate (%) Lindernia pyxidaria” value [12] was 60%, the “Herbicidal rate (%) Monochoria vaginalis” value [12] was 70% and the “Herbicidal rate (%) Echinochloa crus-galli” value [13] was 90%. For the same compound, the “Herbicidal rate (%) Scirpus juncoides” value [14] was 90%.
With `Cc1c(Cc2ccccc2N(S(=O)(=O)C(F)(F)F)S(=O)(=O)C(F)(F)F)c(=O)on1CCS(C)(=O)=O` [Compound 1-1006] the “Herbicidal rate (%) Lindernia pyxidaria” value [1] was 60%, the “Herbicidal rate (%) Monochoria vaginalis” value [1] was 80% and the “Herbicidal rate (%) Echinochloa crus-galli” value [2] was 80%. The “Herbicidal rate (%) Scirpus juncoides” value [3] was 90%, the “herbicidal rate, southern crabgrass” value [4] was 60% and the “herbicidal rate, Chenopodium album” value [5] was 60%. For the same compound, the “herbicidal rate, Amaranthus viridis” value [6] was 60%, the “herbicidal rate, Echinochloa crus-galli” value [7] was 80% and the “herbicidal effect … southern crabgrass” value [8] was 40%. For the same compound, the “herbicidal effect … Chenopodium album” value [9] was 40%, the “herbicidal effect … Amaranthus viridis” value [10] was 40% and the “herbicidal effect (herbicidal rate), Echinochloa crus-galli” value [11] was 40%. The “Herbicidal rate (%) Lindernia pyxidaria” value [12] was 70%, the “Herbicidal rate (%) Monochoria vaginalis” value [12] was 60% and the “Herbicidal rate (%) Echinochloa crus-galli” value [13] was 70%. The “Herbicidal rate (%) Scirpus juncoides” value [14] was 90%.

Reference: patent publication US11109593B2, “Isoxazolin-5-one derivative and herbicide containing same as active ingredient” (HOKKO CHEMICAL INDUSTRY CO., LTD., priority 2017, dated 2021)
